Assays:
MAO B = target: T1, MAO B (Homo sapiens, UniProt P27338); test: MAO B inhibitory activity assay; type: biochemical; settings: terpene at 0.5% (v/v) in Don Julio Añejo (40% ABV) minus in 40% ethanol
T1 sequence (P27338 1-520): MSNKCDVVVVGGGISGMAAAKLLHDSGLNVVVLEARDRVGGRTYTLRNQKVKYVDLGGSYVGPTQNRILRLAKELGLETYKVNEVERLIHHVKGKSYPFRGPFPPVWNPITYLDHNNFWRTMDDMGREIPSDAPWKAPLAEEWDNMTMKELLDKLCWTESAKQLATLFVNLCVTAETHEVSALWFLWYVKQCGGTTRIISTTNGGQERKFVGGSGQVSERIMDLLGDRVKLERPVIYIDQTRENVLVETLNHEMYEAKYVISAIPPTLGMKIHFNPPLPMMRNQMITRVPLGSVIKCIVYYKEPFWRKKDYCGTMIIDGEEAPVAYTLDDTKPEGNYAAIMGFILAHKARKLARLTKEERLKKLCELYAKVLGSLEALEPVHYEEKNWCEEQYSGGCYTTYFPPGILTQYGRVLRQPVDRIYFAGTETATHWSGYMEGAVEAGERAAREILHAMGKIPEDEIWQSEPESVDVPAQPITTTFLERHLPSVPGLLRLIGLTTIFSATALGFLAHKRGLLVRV
Protocol: (§1) U.S. […] The contents of this document are incorporated herein by reference, but briefly, methods that include reverse osmosis and low-pressure evaporation to provide retentates with significant concentrations of these inhibitors are described. In addition, details of assay methods for monoamine oxidase activity (and therefore inhibition thereof) and for ethanol content are provided. The effect of compounds on MAOI activity in tequila was evaluated in the experiment from Table 3.

MAO A = target: T2, MAO A (Homo sapiens, UniProt P21397); test: MAO A inhibitory activity assay; type: biochemical; settings: terpene at 0.5% (v/v) in Don Julio Añejo (40% ABV) minus in 40% ethanol
T2 sequence (P21397 1-527): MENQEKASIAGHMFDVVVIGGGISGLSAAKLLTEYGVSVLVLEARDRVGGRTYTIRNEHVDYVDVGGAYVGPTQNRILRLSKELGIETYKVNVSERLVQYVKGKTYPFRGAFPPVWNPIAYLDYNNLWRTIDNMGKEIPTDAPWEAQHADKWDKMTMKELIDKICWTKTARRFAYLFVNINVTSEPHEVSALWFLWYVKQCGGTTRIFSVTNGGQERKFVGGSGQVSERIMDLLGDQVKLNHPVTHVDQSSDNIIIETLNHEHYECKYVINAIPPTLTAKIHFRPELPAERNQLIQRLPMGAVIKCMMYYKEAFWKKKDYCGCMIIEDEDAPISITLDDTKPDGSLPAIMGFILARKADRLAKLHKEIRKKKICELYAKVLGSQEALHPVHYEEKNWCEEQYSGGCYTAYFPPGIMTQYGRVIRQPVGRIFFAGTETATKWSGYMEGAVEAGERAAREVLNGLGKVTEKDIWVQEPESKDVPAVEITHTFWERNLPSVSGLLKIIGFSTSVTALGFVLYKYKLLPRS
Protocol: as §1

Row | Compound | Δ % Inhibition MAO B (DJA + terpene) − (ETOH + terpene) (MAO B) | Δ % Inhibition MAO A (DJA + terpene) − (ETOH + terpene) (MAO A)
1 | CC(C)=CCCC(C)=CC=O [citral] | 2% | 0%
2 | C=CCc1ccc(O)c(OC)c1 [eugenol] | 8% | 1%
3 | Geramol | 9% | 4%

Now from value to compound:

Row | Δ % Inhibition MAO B (DJA + terpene) − (ETOH + terpene) (MAO B) | Δ % Inhibition MAO A (DJA + terpene) − (ETOH + terpene) (MAO A) | Compound
4 | 9% | 1% | CC1=CCC(=C(C)C)CC1 [terpinolene]
5 | 20% | 9% | C=C(C)[C@@H]1CCC2=CCC[C@@H](C)[C@]2(C)C1 [valencene]
6 | 11% | 5% | C=CC(=C)CCC=C(C)C [β-myrcene]

Source: patent US20240228920A1, “Distilled Spirit with modified Alcohol Levels with or without a Functional Ingredient” (priority 2023, published 2024)
